Experimental data as given in patent publication US7355047B2, “Substituted quinolone carboxylic acids, their derivatives, site of action, and uses thereof” (The Regents of the University of California, priority 2002, dated 2008).

Legend:
[1] = molecular target: GABAA receptor complex (GRC); assay: [35S]TBPS binding assay, rat cortex; details: 2 nM [35S]TBPS, rat cortex; for IC50: read-out: IC50 (inhibition of [35S]TBPS binding); for % Inhibition of 2 nM TBPS in Rat Cortex at 10 μM: 10 μM compound, plain numbers = inhibition
[2] = test system: GABAA receptor complex (GRC); assay: [35S]TBPS binding, rat cerebellum; details: 2 nM [35S]TBPS, 30 μM furosemide, FIG. 14
[3] = test system: GABAA receptor complex (GRC); assay: [35S]TBPS binding dissociation, mouse forebrain; details: 2 nM [35S]TBPS, initiated by 10 μM compound 3, 10 μM mefenamic acid, FIG. 13

Row | SMILES | IC50 [1] [µM] | % Inhibition of 2 nM TBPS in Rat Cortex at 10 μM [1] [%] | further results
1 | CCn1cc(C(=O)O)c(=O)c2cc(NCC(C)c3ccccc3)c(Cl)cc21 (stereo not drawn) | 4 | 65 | –
2 | CCn1cc(C(=O)O)c(=O)c2cc(NC(C)CCc3ccccc3)c(Cl)cc21 (stereo not drawn) | 2 | 84 | –
3 | CCCNC(=O)c1cn(CC)c2cc(Cl)c(NC3CCCc4ccccc43)cc2c1=O (stereo not drawn) | 1.5 | 86 | –
4 | CCOC(=O)c1cn(CC)c2cc(Cl)c(NC3CCCc4ccccc43)cc2c1=O (stereo not drawn) | 0.88 | – | –
5 | CN1C(=O)CN=C(c2ccc(Cl)cc2)c2cc(Cl)ccc21 [4′-chlorodiazepam, reference compound] | – | – | effect on [35S]TBPS binding in absence or presence of Ro5-4864 (4′-chlorodiazepam) ([1]; 0.3, 1 and 30 μM Ro5-4864, FIG. 11): inability of 4′-chlorodiazepam to produce a dose-dependent rightward parallel shift
6 | C[C@H](O)[C@H]1CC[C@H]2[C@@H]3CC[C@H]4C[C@H](O)CC[C@]4(C)[C@H]3CC[C@]12C [5α,20α-diol, 5α-pregnan-3α,20α-diol, reference compound] | – | – | interaction with 5α,20α-diol inhibition of [35S]TBPS binding (neurosteroid site) ([1]; 10 μM compound 3 or 100 nM 3α,5α-P, FIG. 8): antagonize the effect of 3α,5α-P
7 | CCn1cc(C(=O)O)c(=O)c2cc(NC3CCCc4ccccc43)c(Cl)cc21 (stereo not drawn) [drawing 15] | 2.7 | 70 | –
8 | NS(=O)(=O)c1cc(C(=O)O)c(NCc2ccco2)cc1Cl [furosemide, reference compound] | – | – | effect on [35S]TBPS binding in absence or presence of furosemide [2]: inability of furosemide to produce a dose-dependent rightward parallel shift
9 | Cc1cccc(Nc2ccccc2C(=O)O)c1C [mefenamic acid, reference compound] | – | – | dissociation of [35S]TBPS binding in absence or presence of mefenamic acid [3]: accelerate the dissociation of [^35S]TBPS binding
10 | CCn1cc(C(=O)O)c(=O)c2cc(F)c(N3CCNCC3)cc21 [norfloxacin, reference compound] | – | – | effect on [35S]TBPS binding in absence or presence of norfloxacin ([1]; 30 μM and 100 μM norfloxacin, FIG. 9): inability of norfloxacin to produce a dose-dependent rightward parallel shift
11 | CCCC(C)C1(CC)C(=O)NC(=O)NC1=O (stereo not drawn) [pentobarbital, reference compound] | – | – | dissociation of [35S]TBPS binding in absence or presence of pentobarbital ([1]; initiated by 10 μM compound 3, 30 μM pentobarbital, FIG. 10): accelerate the dissociation of [^35S]TBPS binding
